Source: patent US20130261142A1, “COMPOUNDS USED FOR TREATING CANCER AND THE USE THEREOF” (priority 2010, published 2013)
“Also recorded” adds a separate entry of the source.

Tests used:
shh = test: Signaling inhibitors on MCF-7 SPS cells: shh; format: cell-based; details: 30 μM, 3 days
Text: Moreover, MCF-7 SPS cells were affected by the expression of Wnt, NOTCH and shh which caused morphological changes. […] Based on the aforementioned experiments, MCF-7 SPS cells contain cancer stem cells that can undergo further differentiation (FIG. 5B).

OVCA sps cells = test: LOPAC compounds tested on OVCA sps cells, MTS / ATP-based assay (Table 3); format: cell-based; details: proliferation and differentiation
Experimental: CP70 sps cells were seeded in a 96-well culture plate (1×10^3 cells/well) and cultured for 24 hr, and then treated with 30 μM of various compounds selected from the LOPAC database. Following 3-day treatment, the vitality of the treated cells was measured by CellTiter-Glo® Luminescent Cell Vitality Assay kit (Promega) according to the manufacturer's instructions.
(§1) The vitality of the treated cells was measured by MTS assay using MTS-based CellTiter 96 aqueous non-radioactive cell proliferation assay kit (Promega) according to the manufacturer's instructions.

CP70 sps cells [1] = test: Cytotoxicity / vitality of CP70 sps cells (MTS assay); details: FIG. 14 / FIG. 15
Experimental: as §1
The vitality of the CP70 sps cells was measured by MTS assay. For preclinical test, two groups with five mice each were i.p. injected with 1×10^4 of CP70 sps cells alone or followed by Niclosamide treatment (10 mg/kg/daily) from day 1 to day 47, respectively. The body weights of the two groups of mice were monitored every 3 days during day 36 to day 48. After 48 days, the mice were sacrificed to examine the tumor nodules formation in the abdominal cavity.

Cyclin D1 = test: Protein expression in Niclosamide-treated MCF-7 sps cells: Cyclin D1; format: cell-based; details: MCF-7 sps cells treated with Niclosamide
Hes-1 = test: Protein expression in Niclosamide-treated MCF-7 sps cells: Hes-1; format: cell-based; details: MCF-7 sps cells treated with Niclosamide
PTCH = test: Protein expression in Niclosamide-treated MCF-7 sps cells: PTCH; format: cell-based; details: MCF-7 sps cells treated with Niclosamide
OCT4 = test: Flow cytometry of OCT4 in MCF-7 sps cells; format: cell-based; details: 5 μM
MDA-MB 231 cells = test: Inhibition of MDA-MB 231 cells; format: cell-based, human; details: 3 μM
MDA-MB231 SPS cells = test: Survival of MDA-MB231 SPS cells; format: cell-based, human; details: following Niclosamide treatment
MCF-7 sps cells [2] = test: MCF-7 sps tumors in NOD/SCID mice; format: in vivo; details: MCF-7 sps cells in NOD/SCID mice, 5 μM Niclosamide
CP70 sps cells [3] = test: CP70 sps tumors in NOD/SCID mice (preclinical test); format: in vivo
Experimental: For preclinical test, two groups with five mice each were i.p. injected with 1×10^4 of CP70 sps cells alone or followed by Niclosamide treatment (10 mg/kg/daily) from day 1 to day 47, respectively. […] After 48 days, the mice were sacrificed to examine the tumor nodules formation in the abdominal cavity.

[4] = test system: OVCICs sps cells collected from ovarian cancer patient(s); test: Patients' OVCA specimen-derived cells (pdOVCICs / OVCICs sps), MTS assay; format: cell-based, human; details: in vitro
Experimental: A total of 5000 pdOVCICs were seeded onto each well in 96-well plates and each plate was treated with different concentrations of Niclosamide in duplicates for 3 days. The vitality of pdOVCICs cells was measured by MTS assay.

MCF-7 SPS cells [5] = test: LOPAC compounds tested on MCF-7 SPS cells (Table 2); details: Compounds that inhibit cancer stem cells, 3 μM stated for Niclosamide
Text: (§3) The morphology and number of the spheroids were further analyzed by software image pro plus.

MCF-7 SPS cells [6] = test: MCF-7 SPS spheroid proliferation and differentiation
Text: as §3

MCF-7 cells = test: Toxicity of Paclitaxol on MCF-7 cells; format: cell-based
Text: (§2) Next, we compared the toxicity effects of the anti-cancer drug, Paclitaxol, on MCF-7 cells, MCF-7 SPS cells, MDA-MB 231 cells and MDA-MB 231 SPS.

MCF-7 SPS cells [7] = test: Toxicity of Paclitaxol on MCF-7 sps cells; format: cell-based
Text: as §2

SMILES: CC1=C2C[C@H]3[C@@H](CC=C4C[C@@H](O)CC[C@@]43C)[C@@H]2CC[C@]12O[C@@H]1C[C@H](C)CN[C@H]1[C@H]2C [cyclopamide]
- expression of shh (shh): inhibited

SMILES: O=C(Nc1ccc([N+](=O)[O-])cc1Cl)c1cc(Cl)ccc1O [Niclosamide]
- Cancer cell survival (%) (OVCA sps cells): 34.86%
- numbers of ovarian cancer stem cells in CP70 SPS cell culture in vitro (CP70 sps cells [1]): inhibited
- inhibition of Cyclin D1 expression (Cyclin D1): 57.4%
- inhibition of Hes-1 expression (Hes-1): 33.1%
- inhibition of PTCH expression (PTCH): 79.2%
- expression of OCT4 (OCT4): higher expression
- inhibition of MDA-MB 231 cells (MDA-MB 231 cells): significantly inhibited
- survival of MDA-MB231 SPS cells (MDA-MB231 SPS cells): negatively correlated with the treatment
- sizes and weights of the tumors vs untreated mice (MCF-7 sps cells [2]): smaller and lighter
- sizes and weights of the tumors vs untreated mice (CP70 sps cells [3]; CP70 sps cells in NOD/SCID mice, 5 μM Niclosamide): significantly different; also recorded: smaller and lighter
- inhibition on cancer stem cells in pre-clinical ovarian cancer studies (CP70 sps cells [3]; mouse, in vivo): successful inhibition
- numbers of ovarian cancer cells in the tumors (CP70 sps cells [3]; tumors from Niclosamide-treated animals (FIG. 13B)): inhibited
- differentiation and growth of ovarian cancer cells [4]: successfully inhibited
- Cancer cell survival (%) (MCF-7 SPS cells [5]): 1.4%
- inhibition of MCF-7 sps cells (MCF-7 SPS cells [6]; 3 μM): significantly inhibited
- proliferation and differentiation of the spheroid (MCF-7 SPS cells [6]; MCF-7 SPS, 3 μM and 30 μM for 48 hr): efficiently inhibit
- differentiation and proliferation / formation of MCF-7 SPS cells (MCF-7 SPS cells [6]; concentration not given): inhibit the formation; also recorded: significantly inhibited

SMILES: CC(=O)O[C@H]1C(=O)[C@@]2(C)[C@H]([C@H](OC(=O)c3ccccc3)[C@]3(O)C[C@H](OC(=O)[C@H](O)[C@@H](NC(=O)c4ccccc4)c4ccccc4)C(C)=C1C3(C)C)[C@]1(OC(C)=O)CO[C@@H]1C[C@@H]2O [Paclitaxol]
- toxicity effect on MCF-7 cells (MCF-7 cells): notably inhibited
- toxicity effect on MCF-7 sps cells (MCF-7 SPS cells [7]): no effect
